This experiment concerns TNF-α-induced IL-6 production in normal human skin fibroblast-derived CCD-1059Sk cells. Kind of experiment: Test for measurement of inhibitory activity against TNF-α-induced IL-6 production. The format is cell-based. As to conditions: Homo sapiens, test compound at 10 μM, TNF-α stimulation 16 hours, inhibition ratio of 100% or more is indicated as 100%. As for the experimental part:
1. Test for Measurement of Inhibitory Activity Against IL-6 Production
An inhibitory effect on TNF-α-induced IL-6 production in normal human skin fibroblast-derived CCD-1059Sk cells (ATCC No. CRL-2072) was evaluated. The amount of IL-6 was determined by the homogeneous time-resolved fluorescence method using HTRF™ Human IL-6 kit (Cat. No. 62IL6PEB, manufactured by CIS-Bio international, Inc.). Specific test methods will be described below.
(Preparation of Test Compound Solution)
After a test compound was dissolved in dimethyl sulfoxide, the resulting solution was diluted with D-MEM medium containing 0.1% heat-inactivated fetal bovine serum, 0.1 mM MEM non-essential amino acid solution, 100 U/mL penicillin and 100 μg/mL streptomycin (hereinafter referred to as “medium”), whereby a 40 μM test compound solution was prepared.
(Test Method and Measurement Method)
1) CCD-1059Sk cells prepared at a density of 3×10^5 cells/mL were inoculated in a 384-well plate in an amount of 10 μL per well such that the cell density was 3×10^3 cells/well.
2). After the plate was incubated at 37° C. for several hours in a CO2 incubator, 5 μL of the test compound was added to each well.
3) After the plate was incubated at 37° C. for 1 hour in a CO2 incubator, 5 μL of a 40 ng/mL TNF-α solution was added to each well.
4) After the plate was incubated at 37° C. for 16 hours in a CO2 incubator, 10 μL of a cryptate-labeled anti-IL-6 antibody and an XL665-labeled anti-IL-6 antibody containing potassium fluoride was added to each well.
5) After the plate was incubated at room temperature for several hours, a fluorescence intensity ratio (665 nm/620 nm) was determined for each well using a multimode plate reader Analyse™ HT (manufactured by Molecular Device Corporation) and Criterion Host software version 2.00 (manufactured by Molecular Device Corporation), and then, the amount of IL-6 was calculated.
6) The same procedures as in the above 1) to 5) were performed except that 0.4% dimethyl sulfoxide was added in place of the test compound, and the obtained result was designated as the control.
7) The same procedures as in the above 1) to 5) were performed except that 0.4% dimethyl sulfoxide and the medium were added in place of the test compound and the TNF-α solution, respectively, and the obtained result was designated as the background.
(Calculation Formula of IL-6 Production Inhibition Ratio)
An IL-6 production inhibition ratio (%) was calculated from the following formula. IL-6 Production Inhibition Ratio (%)=100×{1−[(Amount of IL-6 for Test Compound)−(Amount of IL-6 for Background)/(Amount of IL-6 for Control)−(Amount of IL-6 for Background)]} (Evaluation Results)

In patent publication US7977371B2, “Pyrrole derivative having ureido group and aminocarbonyl group as substituents” (Santen Pharmaceutical Co., Ltd., priority 2007, dated 2011) one finds inhibition data, which are given here for 37 compounds.

A word on the inhibition: it is the change of the read-out against control, counted positive when it falls. As for `COc1cc(C)c(Cl)cc1-c1cc(C(N)=O)c(NC(N)=O)[nH]1` [Compound 1-24, 2-Aminocarbonylamino-5-(5-chloro-2-methoxy-4-methylphenyl)pyrrole-3-carboxamide], the inhibition at 10 µM (CCD-1059Sk, 16 h) came out at 99%.

Take `CNCc1c(-c2cccc(Cl)c2)[nH]c(NC(N)=O)c1C(N)=O` [Compound 19-1, 2-Aminocarbonylamino-5-(3-chlorophenyl)-4-(methylaminomethyl)pyrrole-3-carboxamide]: the inhibition at 10 µM (CCD-1059Sk, 16 h) worked out at 97%.

Consider `NC(=O)Nc1[nH]c(-c2cccs2)cc1C(N)=O` [Compound 1-16, 2-Aminocarbonylamino-5-(thiophen-2-yl) pyrrole-3-carboxamide], for which the inhibition at 10 µM (CCD-1059Sk, 16 h) amounted to 94%.

As to `NC(=O)Nc1[nH]c(-c2cc(F)ccc2F)cc1C(N)=O` [Compound 1-53, 2-Aminocarbonylamino-5-(2,5-difluorophenyl) pyrrole-3-carboxamide], the inhibition at 10 µM (CCD-1059Sk, 16 h) amounted to 94%.

For `N#Cc1cccc(-c2cc(C(N)=O)c(NC(N)=O)[nH]2)c1` [Compound 1-39, 2-Aminocarbonylamino-5-(3-cyanophenyl) pyrrole-3-carboxamide], the inhibition at 10 µM (CCD-1059Sk, 16 h) is 99%.

Consider `NC(=O)Nc1[nH]c(-c2cc(Cl)ccc2Cl)cc1C(N)=O` [Compound 1-27, 2-Aminocarbonylamino-5-(2,5-dichlorophenyl) pyrrole-3-carboxamide], for which, for the setting “CCD-1059Sk, 16 h”, the inhibition at 10 µM was found to be 100%.

For `CCOc1ccc(Cl)cc1-c1cc(C(N)=O)c(NC(N)=O)[nH]1` [Compound 4-48, 2-Aminocarbonylamino-5-(5-chloro-2-ethoxyphenyl)pyrrole-3-carboxamide], the inhibition at 10 µM (CCD-1059Sk, 16 h) stood at 100%.

Turning to `Cc1ccc(-c2cc(C(N)=O)c(NC(N)=O)[nH]2)cc1` [Compound 1-11, 2-Aminocarbonylamino-5-(4-methylphenyl) pyrrole-3-carboxamide], the inhibition at 10 µM (CCD-1059Sk, 16 h) was found to be 88%.

For `NC(=O)Nc1[nH]c(-c2cc(Cl)ccc2O)cc1C(N)=O` [Compound 3-4, 2-Aminocarbonylamino-5-(5-chloro-2-hydroxyphenyl)pyrrole-3-carboxamide], the inhibition at 10 µM (CCD-1059Sk, 16 h) amounted to 100%.

As to `NC(=O)Nc1[nH]c(-c2ccccc2OCc2cccnc2)cc1C(N)=O` [Compound 4-15, 2-Aminocarbonylamino-5-[2-(pyridin-3-ylmethyloxy)phenyl]pyrrole-3-carboxamide], the inhibition at 10 µM (CCD-1059Sk, 16 h) was determined as 91%.

Consider `NC(=O)Nc1[nH]c(-c2cc(F)ccc2O)cc1C(N)=O` [Compound 3-3, 2-Aminocarbonylamino-5-(5-fluoro-2-hydroxyphenyl)pyrrole-3-carboxamide], for which, for the setting “CCD-1059Sk, 16 h”, the inhibition at 10 µM is 100%.

On to `CN(C)CCCOc1ccccc1-c1cc(C(N)=O)c(NC(N)=O)[nH]1` [Compound 4-30, 2-Aminocarbonylamino-5-[2-(3-dimethylaminopropyloxy)phenyl]pyrrole-3-carboxamide], for which the inhibition at 10 µM (CCD-1059Sk, 16 h) amounted to 99%.

For `CN(CCO)CCOc1ccc(F)cc1-c1cc(C(N)=O)c(NC(N)=O)[nH]1` [Compound 8-17], for the setting “CCD-1059Sk, 16 h”, the inhibition at 10 µM turned out to be 100%.

As to `NC(=O)Nc1[nH]c(-c2cc(Cl)ccc2OCCN2CCCCC2)cc1C(N)=O` [Compound 8-14], the inhibition at 10 µM (CCD-1059Sk, 16 h) turned out to be 100%.

With `NC(=O)Nc1[nH]c(-c2ccccc2)cc1C(N)=O` [Compound 1-4, 2-Aminocarbonylamino-5-phenylpyrrole-3-carboxamide], the inhibition at 10 µM (CCD-1059Sk, 16 h) is 88%.

As to `C=CCOc1ccc(Cl)cc1-c1cc(C(N)=O)c(NC(N)=O)[nH]1` [Compound 4-49, 5-(2-Allyloxy-5-chlorophenyl)-2-(aminocarbonylamino)pyrrole-3-carboxamide], the inhibition at 10 µM (CCD-1059Sk, 16 h) worked out at 100%.

Consider `CCOc1ccccc1-c1cc(C(N)=O)c(NC(N)=O)[nH]1` [Compound 4-11, 2-Aminocarbonylamino-5-(2-ethoxyphenyl)pyrrole-3-carboxamide], for which the inhibition at 10 µM (CCD-1059Sk, 16 h) was 97%.

For `N#CCOc1cccc(-c2cc(C(N)=O)c(NC(N)=O)[nH]2)c1` [Compound 4-9, 2-Aminocarbonylamino-5-(3-cyanomethyloxyphenyl) pyrrole-3-carboxamide], under “CCD-1059Sk, 16 h”, the inhibition at 10 µM is 89%.

Turning to `CSCc1cccc(-c2cc(C(N)=O)c(NC(N)=O)[nH]2)c1` [Compound 15-1, 2-Aminocarbonylamino-5-(3-methylthiomethylphenyl)pyrrole-3-carboxamide], the inhibition at 10 µM (CCD-1059Sk, 16 h) was found to be 98%.

For the compound `NC(=O)Nc1[nH]c(-c2ccccc2Cl)cc1C(N)=O` [Compound 1-40, 2-Aminocarbonylamino-5-(2-chlorophenyl) pyrrole-3-carboxamide], the inhibition at 10 µM (CCD-1059Sk, 16 h) was 99%.

With `CCCNC(=O)Oc1ccccc1-c1cc(C(N)=O)c(NC(N)=O)[nH]1` [Compound 6-1, 2-Aminocarbonylamino-5-(2-propylaminocarbonyloxyphenyl)pyrrole-3-carboxamide], the inhibition at 10 µM worked out at 99%.

As to `CC1CCN(CCOc2ccc(F)cc2-c2cc(C(N)=O)c(NC(N)=O)[nH]2)CC1` [Compound 8-13], under “CCD-1059Sk, 16 h”, the inhibition at 10 µM is 100%.

Regarding `NC(=O)Nc1[nH]c(-c2cc(F)ccc2OCCN2CCCC2)cc1C(N)=O` [Compound 8-12], for the setting “CCD-1059Sk, 16 h”, the inhibition at 10 µM amounted to 100%.

In the case of `CN(CCOc1ccc(F)cc1-c1cc(C(N)=O)c(NC(N)=O)[nH]1)C1CCCCC1` [Compound 8-22], the inhibition at 10 µM (CCD-1059Sk, 16 h) turned out to be 98%.

With `Cc1ccccc1-c1cc(C(N)=O)c(NC(N)=O)[nH]1` [Compound 1-42, 2-Aminocarbonylamino-5-(2-methylphenyl) pyrrole-3-carboxamide], the inhibition at 10 µM (CCD-1059Sk, 16 h) stood at 94%.

With `CN1CCN(CCOc2ccc(Cl)cc2-c2cc(C(N)=O)c(NC(N)=O)[nH]2)CC1` [Compound 8-15], the inhibition at 10 µM (CCD-1059Sk, 16 h) is 98%.

Take `Cc1c(-c2ccc(Br)cc2)[nH]c(NC(N)=O)c1C(N)=O` [Compound 1-21, 2-Aminocarbonylamino-5-(4-bromophenyl)-4-methylpyrrole-3-carboxamide]: the inhibition at 10 µM (CCD-1059Sk, 16 h) was determined as 88%.

For the compound `NC(=O)Nc1[nH]c(-c2cccc(Cl)c2)c(C=O)c1C(N)=O` [Compound 17-1, 2-Aminocarbonylamino-5-(3-chlorophenyl)-4-formylpyrrole-3-carboxamide], the inhibition at 10 µM (CCD-1059Sk, 16 h) amounted to 98%.

Take `NC(=O)Nc1[nH]c(-c2ccccc2OCCN2CCCC2)cc1C(N)=O` [Compound 8-4]: the inhibition at 10 µM (CCD-1059Sk, 16 h) stood at 99%.

`CSCCOc1ccc(F)cc1-c1cc(C(N)=O)c(NC(N)=O)[nH]1` [Compound 8-18]: the inhibition at 10 µM (CCD-1059Sk, 16 h) was 100%.

Consider `CC(=O)Oc1ccccc1-c1cc(C(N)=O)c(NC(N)=O)[nH]1` [Compound 5-1, 2-Aminocarbonylamino-5-(2-acetoxyphenyl)pyrrole-3-carboxamide], for which the inhibition at 10 µM (CCD-1059Sk, 16 h) is 94%.

With `NC(=O)Nc1[nH]c(-c2cc(Cl)ccc2OCCN2CCC(CCO)CC2)cc1C(N)=O` [Compound 8-16], for the setting “CCD-1059Sk, 16 h”, the inhibition at 10 µM was found to be 100%.

For the compound `N#CCOc1ccccc1-c1cc(C(N)=O)c(NC(N)=O)[nH]1` [Compound 4-1, 2-Aminocarbonylamino-5-(2-cyanomethyloxyphenyl)pyrrole-3-carboxamide], the inhibition at 10 µM (CCD-1059Sk, 16 h) was found to be 96%.

For `COc1ccc(F)cc1-c1cc(C(N)=O)c(NC(N)=O)[nH]1` [Compound 1-19, 2-Aminocarbonylamino-5-(5-fluoro-2-methoxyphenyl)pyrrole-3-carboxamide], the inhibition at 10 µM (CCD-1059Sk, 16 h) is 100%.

On to `Cc1ccc(-c2cc(C(N)=O)c(NC(N)=O)[nH]2)s1` [Compound 1-41, 2-Aminocarbonylamino-5-(5-methylthiophen-2-yl) pyrrole-3-carboxamide], for which the inhibition at 10 µM (CCD-1059Sk, 16 h) worked out at 96%.

`Cc1cc(-c2cc(C(N)=O)c(NC(N)=O)[nH]2)c(C)s1` [Compound 1-51, 2-Aminocarbonylamino-5-(2,5-dimethylthiophen-3-yl)pyrrole-3-carboxamide]: the inhibition at 10 µM (CCD-1059Sk, 16 h) was 96%.

With `NC(=O)Nc1[nH]c(-c2ccccc2OCCCN2CCCC2)cc1C(N)=O` [Compound 8-1, 2-Aminocarbonylamino-5-[2-[3-(pyrrolidin-1-yl)propyloxy]phenyl]pyrrole-3-carboxamide], the inhibition at 10 µM (CCD-1059Sk, 16 h) was found to be 97%.
